According to patent publication US10821115B2, “Compounds that inhibit Mcl-1 protein” (priority 2017, dated 2020):
Like-named read-outs stand apart in the source and are kept apart here.

What was measured:
[1] = target: recombinant human Mcl-1 (residues 171-327) / Bim interaction (Homo sapiens (Human), UniProt Q07820); assay: biochemical; format: binding
[2] = test system: human multiple myeloma cell line, OPM-2; assay: Cell viability assay (OPM-2 10 FBS), CellTiter-Glo; format: cell-based; conditions: Homo sapiens, OPM-2, 16 h, read-out: OPM-2 10% FBS IC50 IP, OPM-2 cells, 10% FBS, 16 h, CellTiter-Glo
Outline: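 Steps: plate cells at 3000/well in 10% FBS growth medium, add serially diluted compound, incubate 16 h at 37 °C with 5% CO2, add detection reagent and read luminescence after 25 min. A 4-parameter logistic model gives IC50.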

[3] = TR-FRET, Mcl-1(171-327) / biotin-Bim (51-76), read-out: Mcl-1 HTRF IC50
[4] = 0.1 nM Mcl-1(171-327), 0.05 nM biotin-Bim (51-76), read-out: Mcl-1 HTRF IC50

Sequence of recombinant human Mcl-1 (residues 171-327) / Bim interaction (Q07820 171-327): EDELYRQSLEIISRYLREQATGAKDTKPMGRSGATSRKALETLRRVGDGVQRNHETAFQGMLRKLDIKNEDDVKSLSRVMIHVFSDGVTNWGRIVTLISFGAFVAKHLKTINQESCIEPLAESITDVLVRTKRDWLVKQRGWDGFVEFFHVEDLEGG

Row | SMILES | IC50 [1, 3] [nM] | further results
1 | C[C@@H]1[C@@H](C)C/C=C/[C@](O)(CCCO)[C@@H]2CC[C@H]2CN2C[C@@]3(CCCc4cc(Cl)ccc43)COc3ccc(cc32)C(=O)NS1(=O)=O [Example 100156, (1S,3′R,6′R,7′R,8′E,11′S,12′R)-6-chloro-7′-hydroxy-7′-(3-hydroxypropyl)-11′,12′-dimethyl-3,4-dihydro-2H,15′H-spiro[naphthalene-1,22′-[20]oxa[13]thia[1,14]diazatetracyclo [14.7.2.0~3,6~.0~19,24~]pentacosa[8,16,18,24]tetraen]-15′-one 13′,13′-dioxide] | 0.41 | IC50 [2]: 568 nM
2 | CCO[C@]1(CN2CCN(C(C)C)[C@H](C)C2)CCC[C@H](C)[C@@H](CCOC)S(=O)(=O)NC(=O)c2ccc3c(c2)N(C[C@@H]2CC[C@H]21)C[C@@]1(CCCc2cc(Cl)ccc21)CO3 [Example 519, (1S,3′R,6′R,7′R,11′S,12′R)-6-chloro-7′-ethoxy-12′-(2-methoxyethyl)-11′-methyl-7′-(((3R)-3-methyl-4-(2-propanyl)-1-piperazinyl)methyl)-3,4-dihydro-2H, 15′H-spiro[naphthalene-1,22′-[20]oxa[13]thia[1,14]diazatetracyclo[14.7.2.0-3,6˜.0˜19,24˜]pentacosa[16,18,24]trien]-15′-one 13′,13′-dioxide] | – | IC50 [1, 4]: 0.157 nM
3 | C[C@@]1(O)CCCCCS(=O)(=O)NC(=O)c2ccc3c(c2)N(C[C@@H]2CC[C@H]21)C[C@@]1(CCCc2cc(Cl)ccc21)CO3 [Example 100024, (1S,3′R,6′R,7′R)-6-chloro-7′-hydroxy-7′-methyl-3,4-dihydro-2H,15′H-spiro[naphthalene-1,22′-[20]oxa[13]thia[1,14]diazatetracyclo [14.7.2.0~3,6~.0~19,24~]pentacosa[16,18,24]trien]-15′-one 13′,13′-dioxide] | 6.16 | –
4 | CO[C@@]1(CCN(C)C2CCCC2)/C=C/C[C@H](C)[C@@H](C)S(=O)(=O)NC(=O)c2ccc3c(c2)N(C[C@@H]2CC[C@H]21)C[C@@]1(CCCc2cc(Cl)ccc21)CO3 [Example 100418, (1S,3′R,6′R,7′S,8′E,11′S,12′R)-6-chloro-7′-(2-(cyclopentyl(methyl)amino)ethyl)-7′-methoxy-11′,12′-dimethyl-3,4-dihydro-2H,15′H-spiro[naphthalene-1,22′-[20]oxa[13]thia[1,14]diazatetracyclo [14.7.2.0~3,6~.0~19,24~]pentacosa[8,16,18,24]tetraen]-15′-one 13′,13′-dioxide] | 0.098 | –
5 | C[C@H]1CCCC[C@](C)(O)[C@@H]2CC[C@H]2CN2C[C@@]3(CCCc4cc(Cl)ccc43)COc3ccc(cc32)C(=O)NS1(=O)=O [Example 100031, (1S,3′R,6′R,7′S,12′S)-6-chloro-7′-hydroxy-7′,12′-dimethyl-3,4-dihydro-2H,15′H-spiro[naphthalene-1,22′-[20]oxa[13]thia[1,14]diazatetracyclo [14.7.2.0~3,6~.0~19,24~]pentacosa[16,18,24]trien]-15′-one 13′,13′-dioxide] | – | IC50 ([1]; read-out: Mcl-1 HTRF IC50): 7.45 nM
6 | C[C@@H]1CS(=O)(=O)NC(=O)c2ccc3c(c2)N(C[C@@H]2CC[C@H]2[C@](O)(CN2CCN4CCOC[C@@H]4C2)CC[C@@H]1C)C[C@@]1(CCCc2cc(Cl)ccc21)CO3 [Example 405, (1S,3′R,6′R,7′S,10′S,11′S)-6-chloro-7′-((9aS)-hexahydropyrazino[2,1-c][1,4]oxazin-8(1H)-ylmethyl)-7′-hydroxy-10′,11′-dimethyl-3,4-dihydro-2H, 15′H-spiro[naphthalene-1,22′-[20]oxa[13]thia[1,14]diazatetracyclo[14.7.2.0-3,6˜.0˜19,24˜]pentacosa[16,18,24]trien]-15′-one 13′,13′-dioxide] | – | IC50 [1, 4]: 0.057 nM
7 | C[C@@H]1[C@@H](C)C/C=C/[C@](O)(CS(=O)(=O)N(C)C)[C@@H]2CC[C@H]2CN2C[C@@]3(CCCc4cc(Cl)ccc43)COc3ccc(cc32)C(=O)NS1(=O)=O (single isomer, unassigned) [Example 100293] | – | IC50 ([1]; Mcl-1 HTRF IC50): 0.522 nM
8 | O=C1NS(=O)(=O)CCCCC[C@](O)(CO)[C@@H]2CC[C@H]2CN2C[C@@]3(CCCc4cc(Cl)ccc43)COc3ccc1cc32 [Example 100021, (1S,3′R,6′R,7′R)-6-chloro-7′-hydroxy-7′-(hydroxymethyl)-3,4-dihydro-2H,15′H-spiro[naphthalene-1,22′-[20]oxa[13]thia[1,14]diazatetracyclo [14.7.2.0~3,6~.0~19,24~]pentacosa[16,18,24]trien]-15′-one 13′,13′-dioxide] | 1.05 | –
9 | CO[C@]1(CO)/C=C/C[C@H](C)[C@@H](C)S(=O)(=O)NC(=O)c2ccc3c(c2)N(C[C@@H]2CC[C@H]21)C[C@@]1(CCCc2cc(Cl)ccc21)CO3 [Example 100312, (1S,3′R,6′R,7′R,8′E,11′S,12′R)-6-chloro-7′-(hydroxymethyl)-7′-methoxy-11′,12′-dimethyl-3,4-dihydro-2H,15′H-spiro[naphthalene-1,22′-[20]oxa[13]thia[1,14]diazatetracyclo [14.7.2.0~3,6~.0~19,24~]pentacosa[8,16,18,24]tetraen]-15′-one 13′,13′-dioxide] | 0.088 | –
10 | CO[C@@]1(CO)/C=C/C[C@H](C)[C@@H](C)S(=O)(=O)NC(=O)c2ccc3c(c2)N(C[C@@H]2CC[C@H]21)C[C@@]1(CCCc2cc(Cl)ccc21)CO3 [Example 100001, (1 S,3′R,6′R,7′S, 8′E,11′S, 12′R)-6-chloro-7′-(hydroxymethyl)-7′-methoxy-11′,12′-dimethyl-3,4-dihydro-2H, 15′H-spiro[naphthalene-1,22′-[20]oxa[13]thia[1,14]diazatetracyclo[14.7.2.˜3,6˜.0˜19,24˜]pentacosa[8,16,18,24]tetraen]-15′-one 13′,13′-dioxide] | 0.055 | –
11 | C[C@H]1CC/C=C/[C@@](C)(O)[C@@H]2CC[C@H]2CN2C[C@@]3(CCCc4cc(Cl)ccc43)COc3ccc(cc32)C(=O)NS1(=O)=O [Example 100030, (1S,3′R,6′R,7′R,8′E,12′S)-6-chloro-7′-hydroxy-7′,12′-dimethyl-3,4-dihydro-2H,15′H-spiro[naphthalene-1,22′-[20]oxa[13]thia[1,14]diazatetracyclo [14.7.2.0~3,6~.0~19,24~]pentacosa[8,16,18,24]tetraen]-15′-one 13′,13′-dioxide] | 10.4 | –
12 | C[C@@H]1[C@@H](C)C/C=C/[C@](O)(C#CCCCN2CCOCC2)[C@@H]2CC[C@H]2CN2C[C@@]3(CCCc4cc(Cl)ccc43)COc3ccc(cc32)C(=O)NS1(=O)=O [Example 100494, (1S,3′R,6′R,7′R,8′E,11′S,12′R)-6-chloro-7′-hydroxy-11′,12′-dimethyl-7′-(5-(4-morpholinyl)-1-pentyn-1-yl)-3,4-dihydro-2H,15′H-spiro[naphthalene-1,22′-[20]oxa[13]thia[1,14]diazatetracyclo [14.7.2.0~3,6~.0~19,24~]pentacosa[8,16,18,24]tetraen]-15′-one 13′,13′-dioxide] | 0.078 | –
13 | O=C1NS(=O)(=O)CCCCC[C@@](O)(CO)[C@@H]2CC[C@H]2CN2C[C@@]3(CCCc4cc(Cl)ccc43)COc3ccc1cc32 [Example 100022, (1S,3′R,6′R,7′S)-6-chloro-7′-hydroxy-7′-(hydroxymethyl)-3,4-dihydro-2H,15′H-spiro[naphthalene-1,22′-[20]oxa[13]thia[1,14]diazatetracyclo [14.7.2.0~3,6~.0~19,24~]pentacosa[16,18,24]trien]-15′-one 13′,13′-dioxide] | 0.861 | –
14 | C[C@@H]1[C@@H](C)C/C=C/[C@]2(CN(C)CCO2)[C@@H]2CC[C@H]2CN2C[C@@]3(CCCc4cc(Cl)ccc43)COc3ccc(cc32)C(=O)NS1(=O)=O [Example 130] | – | IC50 [1, 4]: 0.92 nM
15 | C[C@@H]1[C@@H](C)C/C=C/[C@]2(CN3CCOC[C@@H]3CO2)[C@@H]2CC[C@H]2CN2C[C@@]3(CCCc4cc(Cl)ccc43)COc3ccc(cc32)C(=O)NS1(=O)=O [Example 131] | – | IC50 [1, 4]: 0.249 nM
16 | C[C@H]1CC/C=C/[C@](C)(O)[C@@H]2CC[C@H]2CN2C[C@@]3(CCCc4cc(Cl)ccc43)COc3ccc(cc32)C(=O)NS1(=O)=O (single isomer, unassigned) [Example 100029] | 8.73 | –
17 | CC[C@@H]1CC/C=C/[C@@](O)(CO)[C@@H]2CC[C@H]2CN2C[C@@]3(CCCc4cc(Cl)ccc43)COc3ccc(cc32)C(=O)NS1(=O)=O [Example 100034, (1S,3′R,6′R,7′S,8′E,12′R)-6-chloro-12′-ethyl-7′-hydroxy-7′-(hydroxymethyl)-3,4-dihydro-2H,15′H-spiro[naphthalene-1,22′-[20]oxa[13]thia[1,14]diazatetracyclo [14.7.2.0~3,6~.0~19,24~]pentacosa[8,16,18,24]tetraen]-15′-one 13′,13′-dioxide] | 0.877 | –
18 | C[C@@H]1[C@@H](C)C/C=C/[C@@]2(CN3CCOC[C@H]3CO2)[C@@H]2CC[C@H]2CN2C[C@@]3(CCCc4cc(Cl)ccc43)COc3ccc(cc32)C(=O)NS1(=O)=O [Example 99, (1S,3′R,6′R,7′S,8′E,9a″S,11′S,12′R)-6-chloro-11′,12′-dimethyl-3,4,6″,7″,9″,9a″-hexahydro-1″H,2H,15′H-dispiro[naphthalene-1,22′-[20]oxa[13]thia[1,14]diazatetracyclo[14.7.2.0˜3,6˜.0˜19,24˜]pentacosa[8,16,18,24]tetraene-7′,3″-[1,4]oxazino[3,4-c][1,4]oxazin]-15′-one 13′,13′-dioxide] | – | IC50 [1, 4]: 0.243 nM
